{"source": "ChEMBL document CHEMBL1287663", "about": "(Bioorg Med Chem, 2010)", "key": {"[1]": {"system": "K562", "test": "Induction of human K562 cells differentiation assessed as hemoglobin/genomic DNA level at 2 uM after 72 hrs relative to untreated control", "format": "functional"}, "[2]": {"target": "Inosine-5'-monophosphate dehydrogenase 1 (Homo sapiens, UniProt P20839)", "sequence (P20839 whole entry)": "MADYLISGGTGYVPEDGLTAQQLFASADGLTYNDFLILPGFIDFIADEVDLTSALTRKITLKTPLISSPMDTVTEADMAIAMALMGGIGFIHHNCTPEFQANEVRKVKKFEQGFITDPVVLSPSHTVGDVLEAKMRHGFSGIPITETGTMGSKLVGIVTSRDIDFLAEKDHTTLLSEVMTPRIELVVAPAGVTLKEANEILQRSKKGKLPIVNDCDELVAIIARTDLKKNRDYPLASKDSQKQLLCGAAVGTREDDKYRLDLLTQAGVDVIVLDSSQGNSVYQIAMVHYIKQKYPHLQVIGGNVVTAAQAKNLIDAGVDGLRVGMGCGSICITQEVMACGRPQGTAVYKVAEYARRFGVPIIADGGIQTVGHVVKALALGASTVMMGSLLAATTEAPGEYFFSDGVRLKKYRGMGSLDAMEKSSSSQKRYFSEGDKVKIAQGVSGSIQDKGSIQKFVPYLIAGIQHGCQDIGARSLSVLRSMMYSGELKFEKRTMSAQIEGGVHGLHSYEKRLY", "test": "Inhibition of human IMPDH1 expressed in Escherichia coli strain BL21(DE3) after 60 mins"}, "[3]": {"organism": "Homo sapiens", "test": "Selectivity ratio of IC50 for human IMPDH1 to IC50 for human IMPDH2"}, "[4]": {"system": "K562", "test": "Induction of human K562 cells differentiation assessed as hemoglobin/genomic DNA level at 16 uM after 72 hrs relative to untreated control", "format": "functional"}, "[5]": {"system": "K562", "test": "Induction of human K562 cells differentiation assessed as hemoglobin/genomic DNA level at 4 uM after 72 hrs relative to untreated control", "format": "functional"}, "[6]": {"target": "Inosine-5'-monophosphate dehydrogenase 2 (Homo sapiens, UniProt P12268)", "test": "Inhibition of human IMPDH2 expressed in Escherichia coli strain BL21(DE3) after 60 mins"}, "[7]": {"system": "K562", "test": "Cytotoxicity against human K562 cells after 72 hrs by trypan blue exclusion assay", "format": "functional, cell-based", "details": "K562, 72 h"}, "[8]": {"system": "IMPDH2", "test": "Selectivity ratio of IC50 for human K562 cells to IC50 for human IMPDH2", "format": "ADME, cell-based", "details": "K562 cells versus IMPDH2 enzyme, read-out: Ratio IC50"}, "[9]": {"system": "K562", "test": "Induction of human K562 cells differentiation assessed as hemoglobin/genomic DNA level at 32 uM after 72 hrs relative to untreated control", "format": "functional"}, "[10]": {"system": "K562", "test": "Induction of human K562 cells differentiation assessed as hemoglobin/genomic DNA level at 1 uM after 72 hrs relative to untreated control", "format": "functional"}, "[11]": {"system": "HeLa", "test": "Antiproliferative activity against human HeLa cells", "format": "functional, cell-based"}, "[12]": {"test": "Inhibition of HDAC"}, "[13]": {"system": "K562", "test": "Induction of human K562 cells differentiation assessed as hemoglobin/genomic DNA level at 8 uM after 72 hrs relative to untreated control", "format": "functional"}, "[14]": {"system": "K562", "test": "Induction of human K562 cells differentiation assessed as hemoglobin/genomic DNA level at 0.5 uM after 72 hrs relative to untreated control", "format": "functional"}, "[15]": {"system": "K562", "test": "Induction of human K562 cells differentiation assessed as hemoglobin/genomic DNA level at 0.25 uM after 72 hrs relative to untreated control", "format": "functional"}}}
{"smiles": "C/C(=C\\Cc1c(O)c(C)c2c(c1O)C(=O)OC2)CCC(=O)O", "values": [{"measurement": "Ratio", "setting": "[1]", "result": 1.1}, {"measurement": "IC50", "setting": "[2]", "result": 150, "unit": "nM"}, {"measurement": "Ratio IC50", "setting": "[3]", "result": 0.88}, {"measurement": "Ratio", "setting": "[4]", "result": 1.8}, {"measurement": "Ratio", "setting": "[5]", "result": 1.1}, {"measurement": "IC50", "setting": "[6]", "result": 170, "unit": "nM"}, {"measurement": "IC50", "setting": "[7]", "result": 8200, "unit": "nM"}, {"measurement": "selectivity ratio", "setting": "[8]", "result": 48}, {"measurement": "Ratio", "setting": "[9]", "result": 3.1}, {"measurement": "Ratio", "setting": "[10]", "result": 1.4}]}
{"smiles": "CCCCCCCCCCCCOc1c(C/C=C(\\C)CCC(=O)NO)c(OC)c(C)c2c1C(=O)OC2", "values": [{"measurement": "IC50", "setting": "[11]", "result": 1000, "unit": "nM"}, {"measurement": "IC50", "setting": "[12]", "result": 500, "unit": "nM"}]}
{"smiles": "COc1c(C)c2c(c(O)c1C/C=C(\\C)CCC(=O)NO)C(=O)OC2", "note": "[MYCOPHENOLIC HYDROXAMIC ACID]", "values": [{"measurement": "Ratio", "setting": "[1]", "result": 1}, {"measurement": "IC50", "setting": "[2]", "result": 350, "unit": "nM"}, {"measurement": "Ratio IC50", "setting": "[3]", "result": 0.83}, {"measurement": "Ratio", "setting": "[4]", "result": 1.8}, {"measurement": "Ratio", "setting": "[13]", "result": 3.2}, {"measurement": "Ratio", "setting": "[5]", "result": 2.9}, {"measurement": "IC50", "setting": "[6]", "result": 420, "unit": "nM"}, {"measurement": "IC50", "setting": "[7]", "result": 2100, "unit": "nM"}, {"measurement": "IC50", "setting": "[11]", "result": 2000, "unit": "nM"}, {"measurement": "selectivity ratio", "setting": "[8]", "result": 5}, {"measurement": "Ratio", "setting": "[9]", "result": 1.7}, {"measurement": "IC50", "setting": "[12]", "result": 1000, "unit": "nM"}, {"measurement": "Ratio", "setting": "[10]", "result": 0.8}]}
{"smiles": "COc1c(C)c2c(c(OC(C)=O)c1C/C=C(\\C)CCC(=O)O)C(=O)OC2", "values": [{"measurement": "Ratio", "setting": "[1]", "result": 4.2}, {"measurement": "IC50", "setting": "[2]", "result": 4100, "unit": "nM"}, {"measurement": "Ratio IC50", "setting": "[3]", "result": 1}, {"measurement": "Ratio", "setting": "[13]", "result": 6}, {"measurement": "Ratio", "setting": "[14]", "result": 1.8}, {"measurement": "Ratio", "setting": "[5]", "result": 5.3}, {"measurement": "IC50", "setting": "[6]", "result": 4100, "unit": "nM"}, {"measurement": "IC50", "setting": "[7]", "result": 590, "unit": "nM"}, {"measurement": "selectivity ratio", "setting": "[8]", "result": 0.14}, {"measurement": "Ratio", "setting": "[10]", "result": 2.9}]}
{"smiles": "COc1c(C)c2c(c(OC)c1C/C=C(\\C)CCC(=O)O)C(=O)OC2", "values": [{"measurement": "Ratio", "setting": "[1]", "result": 1.2}, {"measurement": "IC50", "setting": "[2]", "result": 67000, "unit": "nM"}, {"measurement": "Ratio IC50", "setting": "[3]", "result": 0.93}, {"measurement": "Ratio", "setting": "[4]", "result": 1.4}, {"measurement": "Ratio", "setting": "[13]", "result": 1.1}, {"measurement": "Ratio", "setting": "[5]", "result": 1.1}, {"measurement": "IC50", "setting": "[6]", "result": 72000, "unit": "nM"}, {"measurement": "IC50", "setting": "[7]", "result": "> 50000", "unit": "nM"}, {"measurement": "Ratio", "setting": "[9]", "result": 1}]}
{"smiles": "COc1c(C)c2c(c(OC)c1C/C=C(\\C)CCC(=O)NO)C(=O)OC2", "values": [{"measurement": "IC50", "setting": "[11]", "result": 50000, "unit": "nM"}, {"measurement": "IC50", "setting": "[12]", "result": 900, "unit": "nM"}]}
{"smiles": "COc1c(C)c2c(c(OC(C)=O)c1C/C=C(\\C)CCC(=O)NO)C(=O)OC2", "values": [{"measurement": "IC50", "setting": "[11]", "result": 1500, "unit": "nM"}, {"measurement": "IC50", "setting": "[12]", "result": 900, "unit": "nM"}]}
{"smiles": "COc1c(C)c2c(c(O)c1C/C=C(\\C)CCC(=O)O)C(=O)OC2", "note": "[MYCOPHENOLIC ACID]", "values": [{"measurement": "IC50", "setting": "[2]", "result": 19, "unit": "nM"}]}
{"smiles": "COC(=O)CC/C(C)=C/Cc1c(O)c2c(c(C)c1OC)COC2=O", "values": [{"measurement": "Ratio", "setting": "[1]", "result": 3.5}, {"measurement": "IC50", "setting": "[2]", "result": 1500, "unit": "nM"}, {"measurement": "Ratio IC50", "setting": "[3]", "result": 1.1}, {"measurement": "Ratio", "setting": "[15]", "result": 1}, {"measurement": "Ratio", "setting": "[13]", "result": 5.6}, {"measurement": "Ratio", "setting": "[14]", "result": 1}, {"measurement": "Ratio", "setting": "[5]", "result": 4.9}, {"measurement": "IC50", "setting": "[6]", "result": 1400, "unit": "nM"}, {"measurement": "IC50", "setting": "[7]", "result": 730, "unit": "nM"}, {"measurement": "selectivity ratio", "setting": "[8]", "result": 0.52}, {"measurement": "Ratio", "setting": "[10]", "result": 2.1}]}
{"smiles": "COc1c(C)c2c(c(O)c1C/C=C(\\C)CCCO)C(=O)OC2", "values": [{"measurement": "Ratio", "setting": "[1]", "result": 0.7}, {"measurement": "IC50", "setting": "[2]", "result": 770, "unit": "nM"}, {"measurement": "Ratio IC50", "setting": "[3]", "result": 0.97}, {"measurement": "Ratio", "setting": "[4]", "result": 3.8}, {"measurement": "Ratio", "setting": "[13]", "result": 2.5}, {"measurement": "Ratio", "setting": "[5]", "result": 1.3}, {"measurement": "IC50", "setting": "[6]", "result": 790, "unit": "nM"}, {"measurement": "IC50", "setting": "[7]", "result": 3900, "unit": "nM"}, {"measurement": "selectivity ratio", "setting": "[8]", "result": 4.9}, {"measurement": "Ratio", "setting": "[9]", "result": 4.7}]}
